# Experimental data published in patent publication US20210401773A1 (priority 2020, published 2021).
# Test system: COVID-19
# Test: Clinical trials/studies: case reports of ye-[…] in people with COVID-19
# Format: in vivo
# Conditions: case 2: taken before ye-COVIDICIN; they got worse
smiles,measurement,value
CCN(CCO)CCCC(C)Nc1ccnc2cc(Cl)ccc12 (stereo not shown) [Hydroxychloroquine],Effect on COVID-19 in patient,did not work
